Results reported in US5070191A, “Demethylallosamidin and a process for production thereof” (Ajinomoto Co., Inc., priority 1989, dated 1991).
Each block holds one molecule with its values, some of them ahead of it.

Key:
[1] = system: Mouse ascitic mammary cancer cells FM3A; experiment: Cytotoxicity, mouse ascitic mammary cancer cells FM3A; format: cell-based; conditions: 1 mg/ml, 37° C., 4 days
Description: (i) Mouse ascitic mammary cancer cells FM3A were inoculated in 1×10^5 /ml on Dulbecco modified MEM medium supplemented with 10% fetal calf serum and demethylallosamidin was added thereto in a concentration of 1 mg/ml followed by stationary culture at 37° C. for 4 days.

[2] = system: Human leukemia cells K562; experiment: Cytotoxicity, human leukemia cells K562; format: cell-based; conditions: 1 mg/ml, 37° C., 4 days
Description: (ii) Human leukemia cells K562 were inoculated in 1×10^5 /ml on FRMI 1640 medium supplemented with 10% fetal calf serum and demethylallosamidin was added thereto in a concentration of 1 mg/ml followed by stationary culture at 37° C. for 4 days.

[3] = system: Fusarium nivale ATCC 42308; experiment: Influence on growth of mold (length and branching degree of hyphae); format: cell-based; parameters: Length Hypha: unit not given here; conditions: after 32 hours; for Branching Degree of Hypha (mean value of branch intervals of hyphae) / Length Hypha: 28° C.
Description: Demethylallosamidin was added to the culture medium of mold to examine its influence. Firstly, Fusarium nivale ATCC 42308 was precultured in PDA medium (manufactured by Nissui Pharmaceutical Co., Ltd.) to form spores. The spores were suspended in physiological saline. The suspension was filtered through cotton to give a spore suspension free of hyphae. A fixed amount of the resulting suspension was inoculated on a medium supplemented with demethylallosamidin (0.80 μg/ml, 0.16 μg/ml) and on demethylallosamidin-free medium (control), respectively. […] The observation was performed as follows: sampling was made over definite periods of time, microscopic photographs were taken and the length and branching degree of hyphae were determined. The branching degree of hyphae is a mean value of branch intervals of hyphae. In any case, incubation was carried out at 28° C. at 120 strokes/min by charging 1 ml each of medium (0.03% of yeast extract, 0.03% of malt extract; both manufactured by Daigo Nutrient Co., Ltd.) and 0.1% of glucose in a testing tube with a cotton stopper (diameter of 11 mm).

[4] = molecular target: T1, fungi-derived chitinase (chitinase solution from baker's yeast) (Saccharomyces cerevisiae, UniProt P29029); experiment: Determination of chitinase inhibitory activity (3H-chitin hydrolysis); format: biochemical; conditions: for Inhibition Rate (%): 37° C., 3 hours, pH 3.0
T1 construct: The cells were removed by centrifugation (0° C., 10 mins., 12,000 g); The resulting supernatant was concentrated to 200 ml by ultrafiltration; host or cells: baker's yeast; concentrated, acid-treated supernatant of shaken cells
T1 sequence (P29029 21-562): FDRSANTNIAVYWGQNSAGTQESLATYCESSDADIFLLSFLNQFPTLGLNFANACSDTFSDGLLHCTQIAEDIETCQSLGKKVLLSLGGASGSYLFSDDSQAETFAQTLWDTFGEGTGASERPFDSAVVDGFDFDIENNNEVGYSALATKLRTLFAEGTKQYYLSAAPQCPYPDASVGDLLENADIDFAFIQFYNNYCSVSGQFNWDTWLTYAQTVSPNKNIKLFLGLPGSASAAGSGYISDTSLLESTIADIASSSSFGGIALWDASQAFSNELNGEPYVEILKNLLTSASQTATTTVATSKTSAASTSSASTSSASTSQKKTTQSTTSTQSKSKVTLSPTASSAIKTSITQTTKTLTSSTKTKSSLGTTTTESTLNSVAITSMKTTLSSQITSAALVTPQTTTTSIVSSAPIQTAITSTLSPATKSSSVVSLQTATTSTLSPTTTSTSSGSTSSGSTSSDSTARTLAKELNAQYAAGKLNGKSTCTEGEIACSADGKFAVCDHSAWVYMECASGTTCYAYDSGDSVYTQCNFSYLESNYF
Description: A Sakaguchi flask of 2 liters was charged with 1 liter of 25 mM MES (Nakarai Chemical Co., Ltd.) buffer containing 0.1% β-mercaptoethanoland 200 g of baker's yeast (Kanegafuchi Chemical Industry Co., Ltd.) followed by shaking at 30° C. at 120 spm for 2 hours. The cells were removed by centrifugation (0° C., 10 mins., 12,000 g). The resulting supernatant was concentrated to 200 ml by ultrafiltration (TOYO ULTRAFILTER UP-20). After concentration, 400 ml of citrate buffer (0.15 M citric acid+0.15 M sodium citrate, pH 3.0) was added to the concentrate. After the formed precipitates were removed by centrifugation (0° C., 10 mins., 12,000 g), the resulting supernatant was concentrated to 40 ml by ultrafiltration. The concentrate was stored at 4° C. and used as the chitinase solution in the assay.
10 ml of 10% acetic acid was slowly added to 0.5 g of chitosan (PFANSTIEHL LABORATORIES INC.), then the mixture was kneaded in a mortar to become gel-like. After standing at room temperature overnight, 45 ml of methanol was added while thoroughly stirring. The mixture was filtered through a gauze and 0.75 ml of ^3 H-labeled acetic anhydride (NET 018A10 ACETIC ANHYDRIDE 5 mCi) was added to the filtrate obtained. The formed agar-like chitin was homogenized with a homogenizer, collected on a glass filter (Whatmann GF/B) and suspended in 10 ml of citrate buffer (pH 3.0). This chitin suspension (2.3 μCi/ml chitin suspension) was used as a substrate for assay.
In an Epfendorf tube, 90 μl of the chitinase solution and 10 μl of the ^3 H-chitin suspension were charged and reacted at 37° C. for 3 hours. In this case, 90 μl of citrate buffer (pH 3.0) was used in place of 90 μl of the enzyme solution as a control sample and reacted in a similar manner. After the reaction, 100 μl of 10% trichloroacetic acid was added and the reaction solution was passed through a glass filter (Whatmann GF/B). After 10 ml of scintillant solution was added to the obtained filtrate, its radioactivity (dpm) was determined. The difference between the determined value and the control sample indicated chitinase activity. The scintillant solution was prepared by dissolving 4 g of Ominiflour (Daiichi Chemical) in 500 ml of toluene and adding 500 ml of Triton X-100 (Nakarai Chemical Co., Ltd.) to the solution.
When allosamidin and demethylallosamidin were added, both were dissolved in 0.1 N acetic acid solution and 10 μl each of the solutions having the respective concentrations was added to the reaction system described above. Also, 10 μl of 0.1 N acetic acid was added to the blank and to the system in which no inhibitor was added, followed by the reaction described above.
The inhibitory activity was calculated according to the equation below: [formula] wherein: A=chitinase activity (dpm) when no inhibitor was added.
B=chitinase activity (dmp) when the inhibitor was added.
In any of the measurements, three series of runs were used and a mean value was determined.

[5] = molecular target: T1, fungi-derived chitinase (chitinase solution from baker's yeast); conditions: background statement; cited from earlier work
[6] = system: endo-type chitinase derived from insects; conditions: background statement; cited from earlier work
[7] = addition of demethylallosamidin

- inhibitory activity against fungi-derived chitinase (in words) [4]: potent inhibitory activity
- Inhibition Rate (%) ([4]; amount added 0.05 μg): 61.1%
- Inhibition Rate (%) ([4]; amount added 0.1 μg): 73.9%
- Inhibition Rate (%) ([4]; amount added 0.2 μg): 75.2%
- Inhibition Rate (%) ([4]; amount added 0.4 μg): 84.6%
- Inhibition Rate (%) ([4]; amount added 0.8 μg): 87.1%
- inhibitory activity per unit weight relative to allosamidin ([4]; fungi-derived chitinase, versus allosamidin): ≤ 100 times
SMILES: CNC1=NC2C(O)C(OC3OC(CO)C(OC4OC(CO)C(O)C(O)C4NC(C)=O)C(O)C3NC(C)=O)C(CO)C2O1 (single isomer, unassigned) [Demethylallosamidin, demethylallosamidin]
- growth inhibition (microscopic observation) [1]: no growth inhibition
- growth inhibition (microscopic observation) ([1]; listed as demethylallosamidin): no growth inhibition was noted at all
- growth inhibition (microscopic observation) [2]: no growth inhibition
- growth inhibition (microscopic observation) ([2]; listed as demethylallosamidin): no growth inhibition was noted at all
- Branching Degree of Hypha (mean value of branch intervals of hyphae) ([3]; 0.16 μg/ml): 72.8 μm
- Length Hypha ([3]; 0.16 μg/ml): 364
- Branching Degree of Hypha (mean value of branch intervals of hyphae) ([3]; 0.80 μg/ml): 74.2 μm
- Length Hypha ([3]; 0.80 μg/ml): 576
- branching degree of hyphae (in words) [3, 7]: decreased
- length of hyphae (in words) [3, 7]: obviously increased

SMILES: CC(=O)N[C@H]1[C@H](O[C@H]2[C@@H](O)[C@@H](NC(C)=O)[C@H](O[C@H]3[C@H](O)[C@H]4N=C(N(C)C)O[C@H]4[C@@H]3CO)O[C@@H]2CO)O[C@H](CO)[C@@H](O)[C@H]1O [Allosamidin, allosamidin]
- inhibitory activity against chitinase derived from fungi (in words, background) [5]: weakly inhibitory activity
- inhibition of endo-type chitinase derived from insects (in words) [6]: strongly inhibits
- Inhibition Rate (%) ([4]; amount added 1 μg): 36.0%
- Inhibition Rate (%) ([4]; amount added 2 μg): 47.6%
- Inhibition Rate (%) ([4]; amount added 4 μg): 58.5%
